The subject of data set [1] is OVX rat model. The data set is described as follows: Anti-resorptive / anti-osteoporotic activity in OVX rat model (overall conclusions). The format is in vivo, Wistar rats.
The conditions of data set [2]: under similar conditions; Burri et al. (2011); cited from earlier work.

In the case of `CC1=C(/C=C/C(C)=C/C=C/C(C)=C/C=C/C=C(C)/C=C/C=C(C)/C=C/C2=C(C)CC(O)CC2(C)C)C(C)(C)CCC1` (stereo not drawn) [beta-cryptoxanthin, beta,beta-caroten-3-ol], the Anti-osteoporotic activity entry in data set [1] is on record as “significant anti-osteoporotic activity”. The “Bioavailability relative to beta-carotene” value in data set [2] was about 7 fold.
